Data taken from patent EP4700040A1, “PEPTIDE AND LUMINESCENT COMPLEX CONTAINING SAME” (Shenzhen Loggene Life Science & Technology Co., Ltd., priority 2023, dated 2024).

Assays:
Format in all cases: biochemical, human
PCT [1] = experiment: Complementary activity of small subunits mutated at conserved positions, Furimazine substrate (Example 6); conditions: MBP-PCT 3.3 ng/ml, supernatant; for activity (luminescence signal value), 3 min: 3 min after Furimazine 25 µM; for activity (luminescence signal value), 6 min: 6 min after Furimazine 25 µM
Protocol: Detection Methods: • (1) The concentration of large subunit-rSCFV5 fusion protein was diluted to 12.5 nM, and 15 µl was added per well; • (2) MBP-PCT fusion protein was diluted to 3.3 ng/ml with PBSAD, and 10 µl was added per well; • (3) HB2151 strain containing plasmids with different small subunit sequences were induced by IPTG at 30°C overnight, then treated with polymyxin B for 1.5h, and centrifuged to collect the supernatant, and 2.5µl supernatant was added per well; • (4) The above three components were slightly mixed, incubated at 37°C for 7 min, and Obuffer 6.37-3 containing Furimazine at a concentration of 25 µM was added, […], the luminescence signal value was detected using a bioluminescence detector; and • (5) Clones with RLU higher than 10,000 were picked. The substrate was replaced with CTZ-h substrate for retesting (Obuffer 6.37-3 containing CTZ-h at a concentration of 25 µM was added, and after 60 s, the luminescence signal value was detected using a bioluminescence detector), and a PBSAD control was added to test the signal-to-noise ratio.
In order to further determine whether these three conserved amino acid sequences were changed, this example constructed a random mutation library of these three positions, with a theoretical diversity of 8,000 and a library capacity of 10^6, and 2,000 single clones were picked. The method of protein induction and expression was the same as that in Example 1. The complementary activity was tested in the same manner as that in Example 4, but the signal-to-noise ratio was not retested with CTZ-h. Clones with different activity were randomly picked for sequencing.

PCT [2] = experiment: Luciferase dual-antibody complementary activation assay for PCT detection, clone supernatants, retest with CTZ-h (Example 1); conditions: for Signal-to-noise ratio: RLU antigen+/RLU antigen-, MBP-PCT 3.3 ng/ml, CTZ-h; for PCT+: luminescence signal value with MBP-PCT 3.3 ng/ml, large subunit-rSCFV5 50 nM, supernatant; for PCT+ / PCT-: retest CTZ-h 25 µM, read after 60 s; for PCT-: luminescence signal value, background control PBSAD without PCT
Protocol: In order to improve the signal-to-noise ratio and complementary activity of the luciferase dual-antibody complementary activation assay, a series of complementary luciferase small subunits were prepared in this example. Large subunit-rSCFV5 fusion protein (SEQ ID NO: 87) was kept unchanged, and the small subunit sequence of the rSCFV18-small subunit P114 fusion protein (SEQ ID NO: 88) was modified by semi-randomization to prepare rSCFV18-small subunit mutant fusion proteins. Based on the sequence of small subunit P114, and with reference to the 3D structure of complementary luciferase, computer-aided sequence design was employed to generate a library with a theoretical diversity of 2.49*10^6. Primers were designed for PCR amplification using the plasmid pComb3x of rSCFV18-small subunit P114 fusion protein as a template. Subsequently, an expression vector library was constructed by means of restriction digestion and ligation (SfiI, NheI), and a semi-random amino acid mutation library was introduced into the small subunit position and transformed into HB2151 competent cells, yielding a library capacity of 7.6*10^9. The 100 plates were spread, and 9,500 single clones were picked and inoculated into 600 µL of 2YTA medium, followed by incubation at 37°C with shaking at 250 rpm for 2 h. When the bacterial density reached approximately OD600 = 0.6~1.0, IPTG was then added to a final concentration of 1 mM, and the culture was further incubated at 30°C with shaking at 250 rpm for 20 h. The next day, the bacteria were collected by centrifugation at 4°C, 4,500g for 10min. The supernatant was discarded, and the precipitate was resuspended with 200µl of PBS containing polymyxin B at a final concentration of 20,000 u/ml. The suspension was incubated at room temperature with shaking at 100rpm for 1h, and then centrifuged at 4500g for 10min, and the supernatant was used for the test.
Test Methods: • (1) The concentration of large subunit-rSCFV5 fusion protein was diluted to 50 nM, and 15 µl was added per well; • (2) MBP-PCT fusion protein was diluted to 3.3 ng/ml with PBSAD, and 15 µl was added per well. The background control was PBSAD, and 10 µl was added per well; • (3) HB2151 strain containing expression plasmids with different small subunit were induced by 1 mM of IPTG at 30°C overnight, then treated with polymyxin B for 1.5 h, and centrifuged to collect the supernatant, and 2.5 µl supernatant was added per well; • (4) The above three components were slightly mixed, incubated at 37°C for 7 min, and Obuffer 6.37-3 containing Furimazine at a concentration of 25 µM was added, and after 80 s, the luminescence signal value was detected using a bioluminescence detector; and • (5) Clones with RLU higher than 10,000 and a signal-to-noise ratio (RLU antigen+/RLU antigen-) higher than that of the rSCFV18-small subunit P114 fusion protein were selected for retesting. The substrate was replaced with CTZ-h for retesting. Obuffer 6.37-3 containing CTZ-h at a concentration of 25 µM was added, and after 60 s, the luminescence signal value was detected using a bioluminescence detector.

PCT [3] = experiment: Second library screening for PCT detection, clone supernatants, retest with CTZ-h (Example 4)
Protocol: In order to further improve the signal-to-noise ratio and complementary activity of the luciferase dual-antibody complementary activation assay, novel complementary luciferase small subunits were prepared in this example. Large subunit-rSCFV5 fusion protein (SEQ ID NO: 87) was kept unchanged, and the small subunit sequence of the rSCFV18-RB073 fusion protein (SEQ ID NO: 89) were modified by semi-randomization. The theoretical diversity was 6912, the library capacity was 10^6, and 3,000 single clones were picked. The method of protein induction and expression was the same as that in Example 2.
Detection Methods: • (1) The concentration of large subunit-rSCFV5 fusion protein was diluted to 12.5 nM, and 15 µl was added per well; • (2) MBP-PCT fusion protein was diluted to 3.3 ng/ml with PBSAD, and 10 µl was added per well; • (3) HB2151 strain containing plasmids with different small subunit sequences were induced by IPTG at 30°C overnight, then treated with polymyxin B for 1.5h, and centrifuged to collect the supernatant, and 2.5µl supernatant was added per well; • (4) The above three components were slightly mixed, incubated at 37°C for 7 min, and Obuffer 6.37-3 containing Furimazine at a concentration of 25 µM was added, and after 3 min, the luminescence signal value was detected using a bioluminescence detector; and • (5) Clones with RLU higher than 10,000 were picked. The substrate was replaced with CTZ-h substrate for retesting (Obuffer 6.37-3 containing CTZ-h at a concentration of 25 µM was added, and after 60 s, the luminescence signal value was detected using a bioluminescence detector), and a PBSAD control was added to test the signal-to-noise ratio.

PCT [4] = experiment: Sensitivity and linear range for PCT detection of preferred small subunits (Example 5); conditions: for luminescence value: normalized
Protocol: Detection Methods: • (1) The concentration of large subunit-rSCFV5 fusion protein was diluted with PBSA to 8.3~25nM, and 15µl was added per well; • (2) MBP-PCT fusion proteins were diluted with PBSAD in a downward gradient starting from 2.5 µg/ml, and 10 µl was added per well; • (3) The rSCFV18-small subunit mutant-containing fusion protein was diluted with PBSA to 30~180 nM, and 15 µl was added per well; • (4) The above three components were slightly mixed, incubated at 37°C for 15 min, and Obuffer 6.37-3 containing CTZ-h at a concentration of 15 µM was added, and the luminescence signal value was immediately detected using a bioluminescence detector (the luminescence value was normalized);

Signal-to-noise ratio (PCT [2]) | PCT+ (PCT [2]) | PCT- (PCT [2]) | Sequence | activity (luminescence signal value), 3 min (PCT [1]) | activity (luminescence signal value), 6 min (PCT [1]) | also measured
 |  |  | AEGYHLFRSKS [RD-108] | 50 | 53 | 
 |  |  | AEGYRLFDRKS [RD-012] | 3586 | 2963 | 
 |  |  | AEGYRLFDRKS [RD-045] | 2398 | 2087 | 
 |  |  | AEGYRLFDRKS [RD-086] | 3394 | 3222 | 
 |  |  | AEPYRIFDRKS [RD-099] | 221 | 52 | 
 |  |  | AESYKLFDRKS [RD-100] | 44 | 214 | 
 |  |  | IEGYRLFDRKS [RD-084] | 2497 | 2394 | 
 |  |  | IEGYRLFDRKS [RD-092] | 4905 | 4539 | 
 |  |  | VEGYHLFDRKS [RD-103] | 211 | 204 | 
33.6 | 37398 | 1080 | VEGYRLFDRKL [RB209] |  |  | 
33.6 | 33103 | 957 | VEGYRLFDRKL [RB212] |  |  | 
45.1 | 27190 | 590 | VEGYRLFDRKW [RB186] |  |  | 
38.8 | 26168 | 658 | VEGYRLFDRVW [RB128] |  |  | 
21 | 79060 | 3587 | VEGYRLFEKKL [RB149] |  |  | 
36.9 | 41446 | 1094 | VEGYRLFEKVW [RB172] |  |  | 
31.3 | 57092 | 1769 | VEGYRLFERIW [RB113] |  |  | 
35.3 | 50183 | 1384 | VEGYRLFERIW [RB240] |  |  | 
25.2 | 74319 | 2837 | VEGYRLFERKL [RB157] |  |  | 

Signal-to-noise ratio (PCT [2]) | PCT+ (PCT [2]) | PCT- (PCT [2]) | Sequence | activity (luminescence signal value), 3 min (PCT [1]) | activity (luminescence signal value), 6 min (PCT [1]) | also measured
25.7 | 109352 | 4101 | VEGYRLFERKS [RB033] |  |  | 
21 | 95553 | 4346 | VEGYRLFERKS [RB097] |  |  | 
31.6 | 58318 | 1790 | VEGYRLFERKW [RB035] |  |  | 
35 | 44654 | 1242 | VEGYRLFERKW [RB276] |  |  | 
32.1 | 53945 | 1630 | VEGYRLFERVL [RB150] |  |  | 
40 | 37150 | 906 | VEGYRLFKREL [RB152] |  |  | 
30.8 | 41519 | 1307 | VEGYRLFNEKS [RB195] |  |  | 
25.7 | 92160 | 3449 | VEGYRLFNKKS [RB054] |  |  | 
27.1 | 76733 | 2735 | VEGYRLFNRKS [RB075] |  |  | 
20.3 | 70963 | 3324 | VEGYRLFNRKS [RB252] |  |  | 
34.7 | 39231 | 1099 | VEGYRLFNRKW [RB223] |  |  | 
20.2 | 55355 | 2605 | VEGYRLFNRVG [RB122] |  |  | 
22.6 | 101765 | 4316 | VEGYRLFNRVS [RB027] |  |  | 
45.2 | 17891 | 387 | VEGYRLHEKIS [RA128] |  |  | 
 |  |  | VEPYKLFDRKS [RD-098] | 214 | 49 | 
 |  |  | VEPYKLFDRKS [RD-104] | 215 | 222 | 
 |  |  | VSGYRLFDKVS [RC-178] |  |  | Signal-to-noise ratio (PCT [3]; PCT+/PCT-, MBP-PCT 3.3 ng/ml, CTZ-h): 9.6; PCT+ (PCT [3]; luminescence signal value with MBP-PCT 3.3 ng/ml, large subunit-rSCFV5 12.5 nM, CTZ-h 25 µM, 60 s): 5708; PCT- (PCT [3]; luminescence signal value, PBSAD control without PCT, large subunit-rSCFV5 12.5 nM, CTZ-h 25 µM, 60 s): 593; luminescence value (PCT [4]; PCT 0.0, background): 5000; luminescence value (PCT [4]; PCT 1 (pg/ml)): 4911; luminescence value (PCT [4]; PCT 3 (pg/ml)): 5152; luminescence value (PCT [4]; PCT 10 (pg/ml)): 5180; luminescence value (PCT [4]; PCT 30 (pg/ml)): 6047; luminescence value (PCT [4]; PCT 100 (pg/ml)): 8378; luminescence value (PCT [4]; PCT 1000 (pg/ml)): 41922; luminescence value (PCT [4]; PCT 10000 (pg/ml)): 350855; luminescence value (PCT [4]; PCT 100000 (pg/ml)): 1664322; luminescence value (PCT [4]; PCT 250000 (pg/ml)): 1858964; Signal-to-noise ratio at 1000 pg/ml (PCT [4]; large subunit 8.3~25 nM, small subunit fusion 30~180 nM, CTZ-h 15 µM): 8.4
